Reference: the NIST ThermoML archive (doi:10.1021/je9006037)

Experiments:
[1] = 298.15 K; 101.33 kPa; Liquid
[2] = refractive index (Na D-line) (dimensionless); xn = mol fraction of the nth substance listed; settings: 101 kPa, Liquid

CO [methanol]
Settings	mass density [kg/m3]
[1]	786.49

CC(C)O [propan-2-ol]
Settings	mass density [kg/m3]
[1]	780.89

CCO [ethanol]
Settings	mass density [kg/m3]
[1]	785.1

CCCO [propan-1-ol] + CCn1cc[n+](C)c1.O=S(=O)([O-])C(F)(F)F
[2], x2 = 0
Settings	refractive index
288.15 K	1.38732
298.15 K	1.38318
308.15 K	1.37897
318.15 K	1.37471
328.15 K	1.37036
338.15 K	1.36587

CO [methanol] + CCn1cc[n+](C)c1.O=S(=O)([O-])C(F)(F)F
[2], x2 = 0
Settings	refractive index
288.15 K	1.33071
298.15 K	1.32653
308.15 K	1.32237
318.15 K	1.3182

CCO [ethanol] + CCn1cc[n+](C)c1.O=S(=O)([O-])C(F)(F)F
[2], x2 = 0
Settings	refractive index
288.15 K	1.36358
298.15 K	1.3593
308.15 K	1.35503
318.15 K	1.35073
328.15 K	1.3463

CCn1cc[n+](C)c1.O=S(=O)([O-])C(F)(F)F [1-ethyl-3-methylimidazolium trifluoromethanesulfonate] + CCO
refractive index, [2]
Settings	288.15 K	298.15 K	308.15 K	318.15 K	328.15 K
x1 = 0.05087	1.37603	1.37224	1.36847	1.3647	1.36088
x1 = 0.1004	1.38531	1.38169	1.37828	1.37496	1.37123
x1 = 0.1504	1.39279	1.38937	1.38635	1.38336	1.3795
x1 = 0.201	1.39891	1.39566	1.39241	1.38923	1.38584
x1 = 0.2991	1.40822	1.40549	1.40179	1.39872	1.39607
x1 = 0.3976	1.41506	1.41187	1.40885	1.40581	1.40267
x1 = 0.4976	1.42051	1.41741	1.41441	1.41137	1.40841
x1 = 0.5935	1.4247	1.42164	1.41857	1.41564	1.41275
x1 = 0.6981	1.42832	1.42536	1.42243	1.41956	1.41673
x1 = 0.7994	1.43116	1.42826	1.42543	1.42262	1.41981
x1 = 0.8407	1.4322	1.42937	1.42653	1.42372	1.42093
x1 = 0.892	1.43344	1.43061	1.42781	1.42501	1.42222
x1 = 0.9444	1.43452	1.43172	1.42894	1.42619	1.42346
x1 = 1	1.43599	1.43322	1.4304	1.42767	1.42494
